Patent US20230339977A1, “SUBSTITUTED HETEROARYL COMPOUND, AND COMPOSITION AND APPLICATION THEREOF” (SUNSHINE LAKE PHARMA CO., LTD., priority 2020, published 2023)
Like-named read-outs stand apart in the source and are kept apart here.

What was measured:
TF-1 cells = experiment: Inhibitory effect on TF-1 cell proliferation; assay type: cell-based; details: Homo sapiens, alamar blue, read-out: IC50 (nM) TF-1 (h)
Method: TF-1 cells were seeded in a 96-well culture plate at a density of 20,000/well with 80 µL per well, the blank well was an equal amount of complete medium, and 10 µL of the compound dilution solution was added to the 96-well plate B1-11, C1-11, E1-11, F1-11, positive and negative wells were added with 5% DMSO medium equal to the volume of the compound, and the final concentration of DMSO was 0.5%. After 30 min, GM-CSF with a final concentration of 2 ng/mL was added to rows B, C, and D (positive wells), and the remaining wells (rows E, F, and G) were added with the same volume of medium as cytokines (negative wells). After incubation for 44 h at 37° C. in 5% CO2, alamar blue was added, the plate was incubated for 4 h, the fluorescence intensity of each well under the conditions of […], 580 nm wavelength was measured, and the IC50 value was calculated.
CTLL-2, P-STAT3 and TF-1 cells were seeded in a 96-well culture plate at a density of 20,000/well with 90 µL per well, and the blank well was an equal amount of complete medium. 10 ul of different compound dilutions were added to each plate row BC, DE, and FG, and 5% DMSO medium with equal volume of the compound was added to positive wells and negative wells, and the final concentration of DMSO was 0.5%. […]

[1] = Pharmacokinetic evaluation in rats after intravenous injection and oral administration; assay type: in vivo; details: rat, plasma; for AUC(0-t): read-out: PK AUClast; for Cmax: read-out: PK Cmax; for half-life: read-out: PK T½ (converted)
Method: The analytical LC/MS/MS system includes an Agilent 1200 series vacuum degasser, a binary syringe pump, an orifice plate autosampler, a column oven, and an Agilent G6430 triple quadrupole mass spectrometer with an electrospray ionization (ESI) source.
Agilent XDB-C18, 2.1 × 30 mm, 3.5 µM column was used to analysis, 5 µL sample was injected. Analytical conditions: Mobile phases were 0.1% formic acid in water (A) and 0.1% formic acid in methanol (B). The flow rate was 0.4 mL/min.
In addition, Agilent 6330 series LC/MS/MS spectrometer was used for analysis, equipped with G1312A binary syringe pump, G1367A automatic sampler and G1314C UV detector; LC/MS/MS spectrometer used ESI radiation source. Optimum analysis was achieved using standards with appropriate cation model processing and MRM conversion for each analyte. A Capcell MP-C18 column, 100 × 4.6 mm I.D., 5 µM (Phenomenex, Torrance, California, USA) was used during the analysis. Mobile phase was 5 mM ammonium acetate, 0.1% methanol in water (A): 5 mM ammonium acetate, 0.1% methanol in acetonitrile (B) (70/30, v/v); flow rate was 0.6 mL/min; column temperature was maintained at room temperature; 20 µL of sample was injected.
The present invention evaluates the pharmacokinetic studies of the compounds of the present invention in mice, rats, dogs or monkeys. The compounds of the present invention were administered in the form of aqueous solution or 2% HPMC + 1% Tween-80 aqueous solution, 5% DMSO + 5% saline solution, 4% MC or capsule. For intravenous administration, animals were dosed at about 0.5, 0.6, 1 or 2 mg/kg. The oral doses (p.o.) were 5 or 10 mg/kg for rats and mice, and 10 mg/kg for dogs and monkeys. Bloods (0.3 mL) were taken at time points 0.25, 0.5, 1.0, 2.0, 3.0, 4.0, 6.0, 8.0, 12 and 24 h and centrifuged at 3,000 or 4,000 rpm for 10 min. Plasma solutions were collected and stored at -20° C. or -70° C. until LC/MS/MS analysis as described above. […] Table 2 is the experimental results of the pharmacokinetic characteristics of the compounds provided in the examples of the present invention in rats.

P-STAT3 = experiment: Effect of TYK2 inhibitor on P-STAT3 expression in PBMC induced by IFN-α (Table 3, P-STAT3 (h)); assay type: cell-based; details: Homo sapiens; P-STAT3 by ELISA, PBMC stimulated with IFN-α 5000 U/mL
Method: Whole blood was collected from healthy subjects, anticoagulated with heparin sodium, and PBMC (human peripheral blood mononuclear cells) were extracted. PBMC were seeded in 96-well culture plates at a density of 1*106/well. The initial concentration of the positive drug BMS986165 was 1000 nM, after diluting 10 times, the positive drug BMS986165 was diluted 8 concentrations by 3 times; the concentration of the other tested compounds was 333 nM. Positive wells and negative wells were added with the same volume of DMSO as the compound, and the final concentration of DMSO was 0.5%. After the compound was added, the cells were incubated at 37° C. for 1 h, and then stimulated by the addition of IFN-α at a final concentration of 5000 U/mL. An equal volume of medium was added to the negative wells and incubated for 15 min. The cells were centrifuged to remove the supernatant, and lysed, and the P-STAT3 was measured according to the instructions of the ELISA kit, the absorbance was read at 450 nm, and the IC50 value or inhibition rate was calculated.
CTLL-2, P-STAT3 and TF-1 cells were seeded in a 96-well culture plate at a density of 20,000/well with 90 µL per well, and the blank well was an equal amount of complete medium. […]

- AUC(0-t) ([1]; IV 1 mg/kg): 1140 ng·h/mL
- Cmax ([1]; IV 1 mg/kg): 1010 ng/mL
- half-life ([1]; IV 1 mg/kg): 0.971 h
- AUC(0-t) ([1]; PO 5 mg/kg): 9430 ng·h/mL
- Cmax ([1]; PO 5 mg/kg): 1990 ng/mL
- half-life ([1]; PO 5 mg/kg): 2.71 h
- bioavailability ([1]; oral bioavailability, PO 5 mg/kg): 165%
- IC50 (P-STAT3): 95.8 nM
SMILES: CC(=O)Nc1cc2c(-c3ccc4c(n3)C3(CCOC3)OC4)cn(C)c2cn1 (stereo not drawn) [Example 2, N-(3-(4,5-Dihydro-2H,5′H-Spiro[Furan-3,7′-Furo[3,4-b]Pyridin]-2′-yl)-1-Methyl-1H-Pyrrolo[2,3-c]Pyridin-5-yl)Acetamide]
- IC50 (TF-1 cells): 7560 nM
